# Measured values taken from US20190315823A1, “SMALL CATIONIC ANTI-BIOFILM AND IDR PEPTIDES” (priority 2013, published 2019).
# Ends that are not written are not given here.
# Test system: methicillin resistant Staphylococcus aureus (MRSA) biofilm
# Test: not given
# Settings: approximate peptide concentration […] (around 3 μg/ml); compared to untreated samples
# Procedure, shortened: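 Static biofilm assay: 1/100 dilutions of overnight cultures grown in BM2 medium (pH 7, glucose, Casamino Acids) or Luria Broth with peptide added at time zero. After 22–46 h, adherent biofilm was stained with crystal violet and read at 595 nm. Some peptides were also tested on K. pneumoniae under flow in a Bioflux system.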
row,Substance,% Biofilm inhibition [%]
1,1018-Q1: single substituted 1018 peptide (QRLIVAVRIWRR-NH2) [Peptide 1018-Q1],46
2,HH2-L12: single substituted HH2 peptide (VQLRIRVAVIRL-NH2),51
3,1002-G8: single substituted 1002 peptide (VQRWLIVGRIRK-NH2) [Peptide 1002-G8],42
4,1018-Q11: single substituted 1018 peptide (VRLIVAVRIWQR-NH2) [Peptide 1018-Q11],51
5,1018-A3: single substituted 1018 peptide (VRAIVAVRIWRR-NH2) [Peptide 1018-A3],49
6,1018-I3: single substituted 1018 peptide (VRIIVAVRIWRR-NH2) [Peptide 1018-I3],68
7,HH2-Q12: single substituted HH2 peptide (VQLRIRVAVIRQ-NH2),72
8,1002-G11: single substituted 1002 peptide (VQRWLIVWRIGK-NH2) [Peptide 1002-G11],60
9,1018-G11: single substituted 1018 peptide (VRLIVAVRIWGR-NH2) [Peptide 1018-G11],40
10,1002-R7: single substituted 1002 peptide (VQRWLIRWRIRK-NH2) [Peptide 1002-R7],58
11,1002-G9: single substituted 1002 peptide (VQRWLIVWGIRK-NH2) [Peptide 1002-G9],44
12,1002-R10: single substituted 1002 peptide (VQRWLIVWRRRK-NH2) [Peptide 1002-R10],15
13,HH2-A4: single substituted HH2 peptide (VQLAIRVAVIRA-NH2),42
14,1002-A5: single substituted 1002 peptide (VQRWAIVWRIRK-NH2) [Peptide 1002-A5],70
15,1018-Q4: single substituted 1018 peptide (VRLQVAVRIWRR-NH2) [Peptide 1018-Q4],39

# Test system: human peripheral blood mononuclear cells (MCP-1)
# Test: SPOT-synthesized derivative screen: production of chemokine MCP-1
# Format: cell-based
# Settings: Table 12; No LPS; human PBMC, peptide at ~18-24 μM
# Procedure, shortened: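 PBMC from heparinized healthy-donor venous blood, Ficoll-separated, cultured at 0.75 to 1×10^6 cells/ml, 37 °C, 5% CO2, under the treatment regimens. MCP-1 in cell-free supernatants measured by capture ELISA.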
row,Substance,Fold increase in MCP1 cf. untreated cells
1,1018-Q1: single substituted 1018 peptide (QRLIVAVRIWRR-NH2) [Peptide 1018-Q1],3.1
2,HH2-L12: single substituted HH2 peptide (VQLRIRVAVIRL-NH2),24
3,1002-G8: single substituted 1002 peptide (VQRWLIVGRIRK-NH2) [Peptide 1002-G8],0.9
4,1018-Q11: single substituted 1018 peptide (VRLIVAVRIWQR-NH2) [Peptide 1018-Q11],11
5,1018-A3: single substituted 1018 peptide (VRAIVAVRIWRR-NH2) [Peptide 1018-A3],0.4
6,1018-I3: single substituted 1018 peptide (VRIIVAVRIWRR-NH2) [Peptide 1018-I3],0.7
7,HH2-Q12: single substituted HH2 peptide (VQLRIRVAVIRQ-NH2),13
8,1002-G11: single substituted 1002 peptide (VQRWLIVWRIGK-NH2) [Peptide 1002-G11],2.9
9,1018-G11: single substituted 1018 peptide (VRLIVAVRIWGR-NH2) [Peptide 1018-G11],48
10,1002-R7: single substituted 1002 peptide (VQRWLIRWRIRK-NH2) [Peptide 1002-R7],2.1
11,1002-G9: single substituted 1002 peptide (VQRWLIVWGIRK-NH2) [Peptide 1002-G9],2.8
12,1002-R10: single substituted 1002 peptide (VQRWLIVWRRRK-NH2) [Peptide 1002-R10],2.5
13,HH2-A4: single substituted HH2 peptide (VQLAIRVAVIRA-NH2),5.0
14,1002-A5: single substituted 1002 peptide (VQRWAIVWRIRK-NH2) [Peptide 1002-A5],0.9
15,1018-Q4: single substituted 1018 peptide (VRLQVAVRIWRR-NH2) [Peptide 1018-Q4],0.4

# Same assay, conditions: Table 12; No LPS; human PBMC, peptide at ~18-24 μM; background subtracted 139 (HH2 derivatives), 170 (1018 derivatives), 242 (1002 and hybrid peptides) pg/ml
row,Substance,MCP1 [pg/mL]
1,1018-Q1: single substituted 1018 peptide (QRLIVAVRIWRR-NH2) [Peptide 1018-Q1],363
2,HH2-L12: single substituted HH2 peptide (VQLRIRVAVIRL-NH2),3916
3,1002-G8: single substituted 1002 peptide (VQRWLIVGRIRK-NH2) [Peptide 1002-G8],-36.2
4,1018-Q11: single substituted 1018 peptide (VRLIVAVRIWQR-NH2) [Peptide 1018-Q11],1773
5,1018-A3: single substituted 1018 peptide (VRAIVAVRIWRR-NH2) [Peptide 1018-A3],-110
6,1018-I3: single substituted 1018 peptide (VRIIVAVRIWRR-NH2) [Peptide 1018-I3],-50
7,HH2-Q12: single substituted HH2 peptide (VQLRIRVAVIRQ-NH2),2034
8,1002-G11: single substituted 1002 peptide (VQRWLIVWRIGK-NH2) [Peptide 1002-G11],465.0
9,1018-G11: single substituted 1018 peptide (VRLIVAVRIWGR-NH2) [Peptide 1018-G11],7922
10,1002-R7: single substituted 1002 peptide (VQRWLIRWRIRK-NH2) [Peptide 1002-R7],270.8
11,1002-G9: single substituted 1002 peptide (VQRWLIVWGIRK-NH2) [Peptide 1002-G9],444.4
12,1002-R10: single substituted 1002 peptide (VQRWLIVWRRRK-NH2) [Peptide 1002-R10],375.3
13,HH2-A4: single substituted HH2 peptide (VQLAIRVAVIRA-NH2),672
14,1002-A5: single substituted 1002 peptide (VQRWAIVWRIRK-NH2) [Peptide 1002-A5],-36.2
15,1018-Q4: single substituted 1018 peptide (VRLQVAVRIWRR-NH2) [Peptide 1018-Q4],-104

# Test system: LPS-stimulated human peripheral blood mononuclear cells (IL1-β)
# Test: not given
# Format: cell-based
# Settings: Table 12; cells stimulated with 10 ng/ml LPS
row,Substance,Fold change in IL1β relative to no peptide LPS stimulated cells
1,1018-Q1: single substituted 1018 peptide (QRLIVAVRIWRR-NH2) [Peptide 1018-Q1],0.12
2,HH2-L12: single substituted HH2 peptide (VQLRIRVAVIRL-NH2),0.23
3,1002-G8: single substituted 1002 peptide (VQRWLIVGRIRK-NH2) [Peptide 1002-G8],0.28
4,1018-Q11: single substituted 1018 peptide (VRLIVAVRIWQR-NH2) [Peptide 1018-Q11],1.24
5,1018-A3: single substituted 1018 peptide (VRAIVAVRIWRR-NH2) [Peptide 1018-A3],0.57
6,1018-I3: single substituted 1018 peptide (VRIIVAVRIWRR-NH2) [Peptide 1018-I3],0.12
7,HH2-Q12: single substituted HH2 peptide (VQLRIRVAVIRQ-NH2),0.73
8,1002-G11: single substituted 1002 peptide (VQRWLIVWRIGK-NH2) [Peptide 1002-G11],0.05
9,1018-G11: single substituted 1018 peptide (VRLIVAVRIWGR-NH2) [Peptide 1018-G11],0.91
10,1002-R7: single substituted 1002 peptide (VQRWLIRWRIRK-NH2) [Peptide 1002-R7],0.16
11,1002-G9: single substituted 1002 peptide (VQRWLIVWGIRK-NH2) [Peptide 1002-G9],0.05
12,1002-R10: single substituted 1002 peptide (VQRWLIVWRRRK-NH2) [Peptide 1002-R10],0.05
13,HH2-A4: single substituted HH2 peptide (VQLAIRVAVIRA-NH2),1.52
14,1002-A5: single substituted 1002 peptide (VQRWAIVWRIRK-NH2) [Peptide 1002-A5],0.07
15,1018-Q4: single substituted 1018 peptide (VRLQVAVRIWRR-NH2) [Peptide 1018-Q4],0.35

# Same assay, conditions: Table 12; cells stimulated with 10 ng/ml LPS; LPS alone 1313 (HH2 derivatives), 1927 (1018 derivatives), 2455 (1002 and hybrid peptides) pg/ml
row,Substance,IL1β Production [pg/mL]
1,1018-Q1: single substituted 1018 peptide (QRLIVAVRIWRR-NH2) [Peptide 1018-Q1],158
2,HH2-L12: single substituted HH2 peptide (VQLRIRVAVIRL-NH2),301
3,1002-G8: single substituted 1002 peptide (VQRWLIVGRIRK-NH2) [Peptide 1002-G8],692
4,1018-Q11: single substituted 1018 peptide (VRLIVAVRIWQR-NH2) [Peptide 1018-Q11],1625
5,1018-A3: single substituted 1018 peptide (VRAIVAVRIWRR-NH2) [Peptide 1018-A3],748
6,1018-I3: single substituted 1018 peptide (VRIIVAVRIWRR-NH2) [Peptide 1018-I3],156
7,HH2-Q12: single substituted HH2 peptide (VQLRIRVAVIRQ-NH2),965
8,1002-G11: single substituted 1002 peptide (VQRWLIVWRIGK-NH2) [Peptide 1002-G11],127
9,1018-G11: single substituted 1018 peptide (VRLIVAVRIWGR-NH2) [Peptide 1018-G11],1189
10,1002-R7: single substituted 1002 peptide (VQRWLIRWRIRK-NH2) [Peptide 1002-R7],382
11,1002-G9: single substituted 1002 peptide (VQRWLIVWGIRK-NH2) [Peptide 1002-G9],127
12,1002-R10: single substituted 1002 peptide (VQRWLIVWRRRK-NH2) [Peptide 1002-R10],127
13,HH2-A4: single substituted HH2 peptide (VQLAIRVAVIRA-NH2),2000
14,1002-A5: single substituted 1002 peptide (VQRWAIVWRIRK-NH2) [Peptide 1002-A5],182
15,1018-Q4: single substituted 1018 peptide (VRLQVAVRIWRR-NH2) [Peptide 1018-Q4],458
